Series [1] has as its system SH-SY5Y cells. As to the kind of experiment: MTT neuroprotection against 6-OHDA-induced cytotoxicity. It counts as cell-based, Human. As to the method:
Human neuroblastoma SH-SY5Y cells were purchased from the American Type Culture Collection (ATCC, Manassas, Va., USA) and cultured in a humidified 5% (v/v) CO2 atmosphere in 37° C. in Dulbecco's Modified Eagle Medium (DMEM) (Life technologies, NY, USA) supplemented with 10% FBS, 1% penicillin (100 U/mL) and streptomycin (100 μg/mL). All experiments were carried out 48 h after the cells were seeded.
Cell viability was determined by 3-(4,5-dimethyl-2-thiazolyl) 2,5-diphenyl-2H-tetrazolium bromide (MTT) assay (Sigma-Aldrich, USA). SH-SY5Y cells were seeded in 96-well plates (1×10^4 cells/well) for 48 h. SH-SY5Y cells were pre-treated with different concentrations of the five lignans (i.e. Schizandrin A, Schizandrin B, SC, Schizandrol A and SchiA) for 12 h and the cell viability was checked by MTT assay. Otherwise, SH-SY5Y cells were pre-treated with different concentrations of the five lignans for 12 h and then exposed to 400 μM 6-OHDA for 4 h. Cells were incubated at 37° C. for 4 h in 0.5 mg/mL MTT solution (prepared in serum free DMEM medium). The medium was then removed, and 100 μL of DMSO was added to each well to dissolve the violet-formazan crystals. The absorbance at 570 nm with 655 nm as a reference wavelength was measured by a multi-label counter (Wallac VICTOR3TMV, Perkin Elmer, Netherlands). Cell viability was expressed as a percentage of the value of the cells without 6-OHDA treatment. The LC50 and EC50 were calculated by GraphPad Prism V5.0 (GraphPad Software, Inc., San Diego, Calif.).
To further study the neuroprotective activities of the five lignans against 6-OHDA-induced cytotoxicity, cells were treated with various concentrations (3, 6, 12, 25, 50 and 100 μM) of the tested compounds for 12 h before exposed to 400 μM 6-OHDA for 4 h.

Series [2] can be described thus: SchiA pharmacokinetics study in plasma. To be noted: microemulsion 30 mg/kg. It counts as in vivo, Sprague-Dawley rats. As for the experimental part: Male Sprague-Dawley rats (SD rats) with body weight between 220 and 250 g and age between 6 and 7 weeks were supplied by Guangdong Medical Experiment Animal Center (Guangzhou, China). SchiA was prepared as microemulsion for i.v. and p.o. at 30 mg/kg. The concentration of SchiA microemulsion was 4.9 mg/ml. After administration of SchiA, blood samples were collected at 0.033, 0.167, 0.5, 1, 2, 4, 8, 12, 24 and 36 h, respectively. Plasma samples were obtained after centrifugation of the collected blood samples at 10,000 rpm for 5 min. Subsequently, in 100 μl plasma which was taken from the supernatant, 200 μl of 50% acetonitrile and 50% methanol were added. After vortexing for 20 s and centrifuging at 12,000 rpm for 10 min, the supernatant was collected and filtered through a 0.22 μm membrane, of which 20 μl was injected into the chromatographic system for analysis.
Quantitative analysis of SchiA was completed on an Agilent series 1260 HPLC apparatus (Agilent Technologies, Santa Clara, Calif., USA) equipped with a vacuum degasser, a quaternary pump, a manual sampler and an ultraviolet detector. RP Phenonenex C-18 column (250 mm×4.6 mm, 5 μm) was used to separate at 35° C. with a mobile phase of water and methanol (83:17, v/v). The flow rate was 1 ml/min. The monitoring wavelength of SchiA was 230 nm.
And then non-compartmental model of DAS 2.0 program was chosen to calculate the major pharmacokinetic parameters.

Each structure is given as a SMILES string.

Broadly, the EC50 is the concentration giving half of the maximal effect. A word on the Tmax: it is the time from dosing to the highest level.

For the compound `COc1cc2c(c(OC)c1OC)-c1c(cc3c(c1OC)OCO3)C[C@H](C)[C@](C)(O)[C@H]2OC(=O)c1ccccc1` [SchiA, Schisantherin A], in series [1] (3, 6, 12, 25, 50 and 100 μM for 12 h before 400 μM 6-OHDA 4 h), the “protection against 6-OHDA-induced damage (cell viability)” value is reported as “protected SH-SY5Y cells against 6-OHDA-induced damage in a dose-dependent manner”. Also, in series [1] (pre-treated 12 h, then 400 μM 6-OHDA 4 h), the EC50 worked out at 8.1 µM. Besides, the t1/2 in series [2] (i.v.) was 15.88 ± 1.82 h; in series [2] (p.o.), 16.543 ± 6.95 h. Further, the Tmax in series [2] (rat plasma) turned out to be 1.33 ± 0.58 h.

For the origin of these results see patent US20150366839A1, “Schisantherin A for the treatment of neurodegenerative diseases” (priority 2014, published 2015).
